Results from the NIST ThermoML archive (doi:10.1016/j.jct.2011.12.030).

Settings: Liquid, Vibrating tube method

COCC[N+]1(C)CCCC1.O=S(=O)([N-]S(=O)(=O)C(F)(F)F)C(F)(F)F
mass density [kg/m3]
Settings | 100 kPa | 1000 kPa | 10000 kPa | 20000 kPa | 40000 kPa | 60000 kPa | 80000 kPa | 100000 kPa | 120000 kPa
278.15 K | 1474.2 | 1474.9 | 1480.8 | 1487 | 1498.6 | 1509.5 | 1519.8 | 1529.3 | 1538.3
298.15 K | 1453.5 | 1454.1 | 1460.2 | 1466.9 | 1479.2 | 1490.6 | 1501.4 | 1511.4 | 1520.9
313.15 K | 1439.1 | 1440.1 | 1446.5 | 1453.5 | 1466.4 | 1478.4 | 1489.4 | 1499.8 | 1509.6
333.15 K | 1420.8 | 1421.6 | 1428.5 | 1435.9 | 1449.5 | 1462.2 | 1473.7 | 1484.6 | 1494.8
348.15 K | 1407.3 | 1408 | 1415.4 | 1423.2 | 1437.5 | 1450.5 | 1462.5 | 1473.6 | 1484.2
373.15 K | 1385.3 | 1385.7 | 1393.4 | 1401.8 | 1417.2 | 1430.9 | 1443.5 | 1455.2 | 1466.3
398.15 K | 1363.2 | 1363.3 | 1372 | 1381 | 1397.4 | 1412 | 1425.4 | 1437.9 | 1449.6

CCOS(=O)(=O)[O-].CCn1cc[n+](C)c1 [1-ethyl-3-methylimidazolium ethyl sulfate]
mass density [kg/m3]
Settings | 100 kPa | 1000 kPa | 10000 kPa | 20000 kPa | 40000 kPa | 60000 kPa | 80000 kPa | 100000 kPa | 120000 kPa
278.15 K | 1251.9 | 1252.2 | 1255.7 | 1259.5 | 1266.8 | 1273.7 | 1280.2 | 1286.5 | 1292.2
298.15 K | 1237 | 1237.3 | 1241 | 1245 | 1252.6 | 1259.7 | 1266.5 | 1273.1 | 1279.3
313.15 K | 1226.6 | 1227 | 1230.8 | 1235 | 1242.8 | 1250.3 | 1257.3 | 1264.1 | 1270.5
333.15 K | 1213 | 1213.4 | 1217.4 | 1221.7 | 1230 | 1237.8 | 1245.2 | 1252.3 | 1259.1
348.15 K | 1203.1 | 1203.6 | 1207.7 | 1212.3 | 1220.9 | 1228.9 | 1236.5 | 1243.8 | 1250.8
373.15 K | 1187.3 | 1187.3 | 1191.8 | 1196.6 | 1205.8 | 1214.2 | 1222.2 | 1229.7 | 1237
398.15 K | 1171.4 | 1171 | 1175.9 | 1181 | 1190.7 | 1199.7 | 1208.1 | 1216 | 1223.4
